Reference: ChEMBL document CHEMBL1148655, “Anti-angiogenic activity of basic-type, selective cyclooxygenase (COX)-1 inhibitors” (2006)
The source made the active and inactive calls. The calls are words filed in the database; no cut-off is given here.

tested on: HUVEC; assay: Antiangiogenic activity against HUVEC cells by tube formation assay at 100 uM; assay type: functional, Homo sapiens; conditions: not given

Structure (SMILES) | Activity
Cc1cc(C)cc(N2CCc3cc(N)ccc32)c1 | 75%

same assay, conditions: Homo sapiens, HUVEC

Structure (SMILES) | inhibition at 100 µM
Cc1cc(C)cc(C(=O)n2ccc3cc(N)ccc32)c1 | 50%
CS(=O)(=O)c1ccc(-c2cc(Br)sc2-c2ccc(F)cc2)cc1 [DUP-697] | 25%
CC(C)Cc1ccc(C(C)C(=O)O)cc1 (stereo not drawn) [IBUPROFEN] | 35%

tested on: HUVEC; assay: Cytotoxicity against HUVEC cell line; assay type: functional; conditions: Homo sapiens, read-out: LD50 (the source's name)

Structure (SMILES) | CC50
O=C(c1cc(Cl)cc(Cl)c1)n1ccc2cc([N+](=O)[O-])ccc21 | > 100 µM
CC(C)(C)c1cc(C(=O)n2ccc3cc([N+](=O)[O-])ccc32)cc(C(C)(C)C)c1 | > 100 µM
Nc1ccc2c(c1)CCN2C(=O)c1cc(Cl)cc(Cl)c1 | > 100 µM
Nc1ccc2c(c1)CCN2C(=O)c1cc(C(F)(F)F)cc(C(F)(F)F)c1 | > 100 µM
Cc1cc(C)cc(C(=O)N2CCc3cc(N)ccc32)c1 | > 100 µM
CC(C)(C)c1cc(C(=O)N2CCc3cc(N)ccc32)cc(C(C)(C)C)c1 | > 100 µM
CC(C)(C)c1cc(C(=O)n2ccc3cc(N)ccc32)cc(C(C)(C)C)c1 | > 100 µM
Cc1cc(C)cc(C(=O)N2CCc3cc([N+](=O)[O-])ccc32)c1 | > 100 µM
O=C(c1cc(C(F)(F)F)cc(C(F)(F)F)c1)n1ccc2cc([N+](=O)[O-])ccc21 | > 100 µM
Nc1ccc2c(ccn2C(=O)c2cc(Cl)cc(Cl)c2)c1 | > 100 µM
Cc1cc(C)cc(C(=O)n2ccc3cc(N)ccc32)c1 | > 100 µM
CC(C)(C)c1cc(C(=O)N2CCc3cc([N+](=O)[O-])ccc32)cc(C(C)(C)C)c1 | > 100 µM
O=C(c1cc(Cl)cc(Cl)c1)N1CCc2cc([N+](=O)[O-])ccc21 | > 100 µM
Cc1cc(C)cc(C(=O)n2ccc3cc([N+](=O)[O-])ccc32)c1 | > 100 µM
Nc1ccc2c(ccn2C(=O)c2cc(C(F)(F)F)cc(C(F)(F)F)c2)c1 | > 100 µM
O=C(c1cc(C(F)(F)F)cc(C(F)(F)F)c1)N1CCc2cc([N+](=O)[O-])ccc21 | > 100 µM

target: Prostaglandin G/H synthase 1 (Homo sapiens) (UniProt P23219); conditions: at 30 µM
Sequence (P23219 whole entry): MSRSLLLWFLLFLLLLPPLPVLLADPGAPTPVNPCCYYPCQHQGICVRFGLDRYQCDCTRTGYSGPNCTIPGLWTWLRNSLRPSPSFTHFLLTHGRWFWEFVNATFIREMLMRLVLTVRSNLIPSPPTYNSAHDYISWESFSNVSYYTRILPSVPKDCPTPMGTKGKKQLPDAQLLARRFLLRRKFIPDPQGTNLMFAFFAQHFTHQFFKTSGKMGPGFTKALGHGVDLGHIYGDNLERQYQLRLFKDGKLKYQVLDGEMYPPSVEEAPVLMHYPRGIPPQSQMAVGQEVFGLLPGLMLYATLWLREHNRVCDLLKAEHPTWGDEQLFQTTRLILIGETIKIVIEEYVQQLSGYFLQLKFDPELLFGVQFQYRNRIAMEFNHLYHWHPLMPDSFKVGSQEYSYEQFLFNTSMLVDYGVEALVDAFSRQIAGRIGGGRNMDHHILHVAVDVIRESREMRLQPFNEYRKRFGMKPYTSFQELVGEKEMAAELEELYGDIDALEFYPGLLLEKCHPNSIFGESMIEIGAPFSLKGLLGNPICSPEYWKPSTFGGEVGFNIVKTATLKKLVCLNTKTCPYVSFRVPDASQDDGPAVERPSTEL
Description: Inhibition of COX1 at 30 uM

Structure (SMILES) | inhibition
CC(=O)Oc1ccccc1C(=O)O | 21.9%
CS(=O)(=O)c1ccc(-c2cc(Br)sc2-c2ccc(F)cc2)cc1 [DUP-697] | inactive

target: T1, Prostaglandin G/H synthase 2 (Homo sapiens) (UniProt P35354); conditions: at 30 µM
T1 sequence (whole entry): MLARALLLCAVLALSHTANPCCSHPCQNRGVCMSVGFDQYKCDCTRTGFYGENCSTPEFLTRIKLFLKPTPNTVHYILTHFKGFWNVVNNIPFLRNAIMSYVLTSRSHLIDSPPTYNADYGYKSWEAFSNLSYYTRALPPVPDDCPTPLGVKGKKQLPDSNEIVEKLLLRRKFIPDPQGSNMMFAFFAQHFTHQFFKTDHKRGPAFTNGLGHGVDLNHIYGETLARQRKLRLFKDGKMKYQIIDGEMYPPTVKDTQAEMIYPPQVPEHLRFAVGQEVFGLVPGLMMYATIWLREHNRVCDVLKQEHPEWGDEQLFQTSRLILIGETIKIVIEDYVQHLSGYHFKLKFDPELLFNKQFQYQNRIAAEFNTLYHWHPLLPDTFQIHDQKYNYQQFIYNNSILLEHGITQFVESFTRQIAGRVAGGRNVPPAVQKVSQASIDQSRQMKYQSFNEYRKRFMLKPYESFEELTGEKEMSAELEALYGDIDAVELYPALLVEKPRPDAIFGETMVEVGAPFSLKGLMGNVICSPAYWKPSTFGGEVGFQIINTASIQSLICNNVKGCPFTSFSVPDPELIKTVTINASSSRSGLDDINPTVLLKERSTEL
Description: Inhibition of COX2 at 30 uM

Structure (SMILES) | inhibition
CC(=O)Oc1ccccc1C(=O)O | 15.7%
